In patent US20220162192A1 (ESCAPE Bio, Inc., priority 2019, published 2022) one finds IC50 data, which are given here for 32 compounds.

For experiment [1], the target named is T1, Recombinant G2019S-LRRK2 protein (Homo sapiens, UniProt Q5S007, G2019S).
T1 construct: purchased Life Technologies PV4881
The experiment in a line: LanthaScreen Kinase Activity Assay (TR-FRET), G2019S-LRRK2. Type of experiment: biochemical. Particulars: class symbols; 25 μM ATP, 400 nM LRRKtide, 2.9 nM kinase, 60 min at room temperature. The method, boiled down:
(§1)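 Recombinant wild-type or G2019S LRRK2 (2.9 nM final) phosphorylated fluorescein-LRRKtide (400 nM) with 25 μM ATP in 50 mM Tris pH 8.5, 5 mM MgCl2, 1 mM EGTA, 0.01% Brij-35, 2 mM DTT for 60 min at RT. After EDTA stop, Tb-anti-pERM TR-FRET (520/495 nm ratio) was read. IC50 values came from 11-point, 3-fold compound dilutions.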
In general terms: Time-resolved FRET reads energy transfer from a long-lived donor to a nearby acceptor.

The target in experiment [2] is T2, Recombinant wild type LRRK2 protein (Homo sapiens, UniProt Q5S007).
T2 construct: purchased Life Technologies PR8604B
The experiment in a line: LanthaScreen Kinase Activity Assay (TR-FRET), wild type LRRK2. Type of experiment: biochemical. As to conditions: 25 μM ATP, 400 nM LRRKtide, 2.9 nM kinase, 60 min at room temperature, read-out: LRRK2 WT IC50. In outline:
as §1

One may read the pIC50 as −log10 of the IC50, conventionally taken in molar units.

pIC50: −log10 of the molar value. Like-named read-outs stand apart in the source and are kept apart here.

T2 sequence (Q5S007 whole entry): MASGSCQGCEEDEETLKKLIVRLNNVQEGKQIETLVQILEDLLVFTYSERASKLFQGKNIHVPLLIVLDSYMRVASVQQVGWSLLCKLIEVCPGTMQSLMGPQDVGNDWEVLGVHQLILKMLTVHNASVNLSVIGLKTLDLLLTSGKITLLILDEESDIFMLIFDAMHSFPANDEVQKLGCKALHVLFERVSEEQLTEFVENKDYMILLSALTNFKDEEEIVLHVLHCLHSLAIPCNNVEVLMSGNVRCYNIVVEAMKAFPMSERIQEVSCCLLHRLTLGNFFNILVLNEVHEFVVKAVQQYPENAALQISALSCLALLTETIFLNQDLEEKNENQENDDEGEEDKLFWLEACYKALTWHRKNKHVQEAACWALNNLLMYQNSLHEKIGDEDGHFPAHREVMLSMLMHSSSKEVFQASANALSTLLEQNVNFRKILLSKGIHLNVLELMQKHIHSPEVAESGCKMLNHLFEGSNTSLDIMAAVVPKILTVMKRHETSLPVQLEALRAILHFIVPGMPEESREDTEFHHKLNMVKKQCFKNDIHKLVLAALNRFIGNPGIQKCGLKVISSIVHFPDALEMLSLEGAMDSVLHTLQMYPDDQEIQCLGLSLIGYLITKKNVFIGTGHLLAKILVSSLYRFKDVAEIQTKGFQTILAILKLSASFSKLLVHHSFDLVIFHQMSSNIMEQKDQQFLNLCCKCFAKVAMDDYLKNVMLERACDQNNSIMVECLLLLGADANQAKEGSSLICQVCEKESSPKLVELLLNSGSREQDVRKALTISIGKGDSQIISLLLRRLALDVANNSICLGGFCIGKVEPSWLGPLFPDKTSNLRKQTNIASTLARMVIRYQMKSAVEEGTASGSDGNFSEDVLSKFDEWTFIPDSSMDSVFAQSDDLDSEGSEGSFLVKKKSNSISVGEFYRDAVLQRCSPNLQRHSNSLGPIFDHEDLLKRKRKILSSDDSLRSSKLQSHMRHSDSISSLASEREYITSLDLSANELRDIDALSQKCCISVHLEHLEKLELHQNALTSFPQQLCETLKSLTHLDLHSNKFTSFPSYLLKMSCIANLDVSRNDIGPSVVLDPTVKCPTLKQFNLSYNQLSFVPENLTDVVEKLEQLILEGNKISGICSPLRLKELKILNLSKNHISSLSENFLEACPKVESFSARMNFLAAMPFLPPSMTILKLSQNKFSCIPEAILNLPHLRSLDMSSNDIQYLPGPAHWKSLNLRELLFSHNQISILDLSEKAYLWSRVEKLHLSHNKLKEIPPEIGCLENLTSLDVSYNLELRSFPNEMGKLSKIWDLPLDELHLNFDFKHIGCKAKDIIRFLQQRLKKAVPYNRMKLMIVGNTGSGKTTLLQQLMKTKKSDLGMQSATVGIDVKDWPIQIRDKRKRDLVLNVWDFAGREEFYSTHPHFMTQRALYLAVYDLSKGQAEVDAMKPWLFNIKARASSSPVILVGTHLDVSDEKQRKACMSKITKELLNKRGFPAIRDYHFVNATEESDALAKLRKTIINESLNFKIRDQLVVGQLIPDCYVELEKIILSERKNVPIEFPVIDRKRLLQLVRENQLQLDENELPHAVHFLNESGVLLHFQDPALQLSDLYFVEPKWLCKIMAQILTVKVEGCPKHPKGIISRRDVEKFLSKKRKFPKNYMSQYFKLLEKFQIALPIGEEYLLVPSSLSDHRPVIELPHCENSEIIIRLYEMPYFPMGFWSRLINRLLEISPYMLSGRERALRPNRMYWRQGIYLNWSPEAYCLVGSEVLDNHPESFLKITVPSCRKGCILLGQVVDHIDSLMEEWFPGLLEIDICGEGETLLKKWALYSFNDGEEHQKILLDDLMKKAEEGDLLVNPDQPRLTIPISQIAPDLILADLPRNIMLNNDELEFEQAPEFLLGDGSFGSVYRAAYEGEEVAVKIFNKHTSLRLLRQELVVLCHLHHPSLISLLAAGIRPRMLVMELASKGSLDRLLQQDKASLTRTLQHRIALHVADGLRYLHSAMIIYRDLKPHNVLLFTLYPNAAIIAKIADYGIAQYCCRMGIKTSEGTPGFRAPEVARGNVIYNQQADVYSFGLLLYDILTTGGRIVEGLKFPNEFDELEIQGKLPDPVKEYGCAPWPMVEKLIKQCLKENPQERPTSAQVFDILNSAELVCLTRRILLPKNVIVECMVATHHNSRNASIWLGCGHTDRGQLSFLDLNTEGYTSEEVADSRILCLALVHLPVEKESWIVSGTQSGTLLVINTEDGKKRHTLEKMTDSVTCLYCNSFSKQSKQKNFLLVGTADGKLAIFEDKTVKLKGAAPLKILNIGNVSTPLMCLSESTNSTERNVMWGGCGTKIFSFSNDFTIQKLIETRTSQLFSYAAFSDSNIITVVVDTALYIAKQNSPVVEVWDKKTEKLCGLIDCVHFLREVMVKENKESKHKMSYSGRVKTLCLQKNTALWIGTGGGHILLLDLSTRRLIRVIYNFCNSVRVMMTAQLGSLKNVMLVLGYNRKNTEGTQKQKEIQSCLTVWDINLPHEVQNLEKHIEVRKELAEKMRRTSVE
T1 sequence (Q5S007 whole entry G2019S): as the sequence (Q5S007 whole entry) above, with G2019S counted along it

For the compound `Cc1cc2nncn2c(C)c1C(=O)Nc1ccc2[nH]nc(C)c2c1` [Example 61, 5,7-Dimethyl-N-(3-methyl-1H-indazol-5-yl)-[1,2,4]triazolo[4,3-a]pyridine-6-carboxamide], the pIC50 in experiment [1] was at least 7.00; in experiment [2] (class symbols) it was 6.00 to 7.00.
The corresponding values for `O=C(Nc1ccc2[nH]nc(-c3ccoc3)c2c1)c1ccc2nccn2c1` [Example 119, N-(3-(Furan-3-yl)-1H-indazol-5-yl)imidazo[1,2-a]pyridine-6-carboxamide] are at least 7.00 and 6.00 to 7.00.
For `Cn1ncc2c(F)c(C(=O)Nc3ccc4[nH]nc(N5CCC5)c4c3)c(F)cc21` [Example 139, N-(3-(Azetidin-1-yl)-1H-indazol-5-yl)-4,6-difluoro-1-methyl-1H-indazole-5-carboxamide], the negative logarithm of the IC50 (pIC50) is 6.00 to 7.00 in experiment [1] and 5.00 to 6.00 in experiment [2] (class symbols).
With `Cc1cc2c(C)ncn2c(C)c1C(=O)Nc1ccc2[nH]nc(-c3ccoc3)c2c1` [Example 147, N-(3-(Furan-3-yl)-1H-indazol-5-yl)-1,5,7-trimethylimidazo[1,5-a]pyridine-6-carboxamide], the pIC50 in experiment [1] and in experiment [2] (class symbols) was at least 7.00 in each case.
Turning to `Cc1cnccc1-c1n[nH]c2ccc(NC(=O)c3c(F)cc4c(cnn4C)c3F)cc12` [Example 40, 4,6-Difluoro-1-methyl-N-(3-(3-methylpyridin-4-yl)-1H-indazol-5-yl)-1H-indazole-5-carboxamide], the pIC50 was 6.00 to 7.00 in experiment [1] and 5.00 to 6.00 in experiment [2] (class symbols).
The corresponding values for `Cn1ncc2c(F)c(C(=O)Nc3ccc4[nH]nc(C5CCOC5)c4c3)c(F)cc21` (stereo not shown) [Example 104, 4,6-Difluoro-1-methyl-N-(3-(tetrahydrofuran-3-yl)-1H-indazol-5-yl)-1H-indazole-5-carboxamide] are 6.00 to 7.00 and 5.00 to 6.00.
With `Cc1c(C(=O)Nc2ccc3[nH]nc(-c4ccccc4)c3c2)ccn2nncc12` [Example 149, 4-Methyl-N-(3-phenyl-1H-indazol-5-yl)-[1,2,3]triazolo[1,5-a]pyridine-5-carboxamide], the pIC50 in experiment [1] and in experiment [2] (class symbols) was at least 7.00 in each case.
Regarding `Cn1cnc2ccc(C(=O)Nc3ccc4[nH]nc(-c5ccoc5)c4c3)cc21` [Example 131, N-(3-(Furan-3-yl)-1H-indazol-5-yl)-1-methyl-1H-benzo[d]imidazole-6-carboxamide], the pIC50 in experiment [1] and in experiment [2] (class symbols) was at least 7.00 each time.
Take `Cc1cc(-c2n[nH]c3ccc(NC(=O)c4c(F)cc5c(cnn5C)c4F)cc23)c(C)o1` [Example 101, N-(3-(2,5-Dimethylfuran-3-yl)-1H-indazol-5-yl)-4,6-difluoro-1-methyl-1H-indazole-5-carboxamide]: the values for the pIC50 in experiment [1] and in experiment [2] (class symbols) were at least 7.00 and 6.00 to 7.00, respectively.
Regarding `O=C(Nc1ccc2[nH]nc(-c3ccoc3)c2c1)c1nc2ccncc2s1` [Example 171, N-(3-(Furan-3-yl)-1H-indazol-5-yl)thiazolo[5,4-c]pyridine-2-carboxamide], the pIC50 in experiment [1] and in experiment [2] (class symbols) was at least 7.00 each time.
On to `Cc1cccc(-c2n[nH]c3ccc(NC(=O)c4c(C)cc5cnnn5c4C)cc23)c1C` [Example 47, N-(3-(2,3-Dimethylphenyl)-1H-indazol-5-yl)-5,7-dimethyl-[1,2,3]triazolo[1,5-a]pyridine-6-carboxamide], for which the results for the pIC50 in experiment [1] and in experiment [2] (class symbols) were 6.00 to 7.00 and 5.00 to 6.00, respectively.
Take `Cc1cc2c(C)nnn2c(C)c1C(=O)Nc1ccc2[nH]nc(C)c2c1` [Example 65, 3,5,7-Trimethyl-N-(3-methyl-1H-indazol-5-yl)-[1,2,3]triazolo[1,5-a]pyridine-6-carboxamide]: the pIC50 in experiment [1] is 6.00 to 7.00; in experiment [2] (class symbols), 5.00 to 6.00.
As to `Cc1cn2cncc2cc1C(=O)Nc1ccc2[nH]nc(-c3ccoc3)c2c1` [Example 152, N-(3-(Furan-3-yl)-1H-indazol-5-yl)-6-methylimidazo[1,5-a]pyridine-7-carboxamide], the pIC50 in experiment [1] and in experiment [2] (class symbols) was at least 7.00 throughout.
Take `Cc1c(C(=O)Nc2ccc3[nH]nc(-c4ccccc4)c3c2)ccc2cncn12` [Example 62, 5-Methyl-N-(3-phenyl-1H-indazol-5-yl)imidazo[1,5-a]pyridine-6-carboxamide]: the pIC50 in experiment [1] is at least 7.00; in experiment [2] (class symbols) it was 6.00 to 7.00.
The like results for `Cn1ncc2c(F)c(C(=O)Nc3ccc4[nH]nc(C5=CCCO5)c4c3)c(F)cc21` [Example 72, N-(3-(4,5-Dihydrofuran-2-yl)-1H-indazol-5-yl)-4,6-difluoro-1-methyl-1H-indazole-5-carboxamide] were, in that order, 6.00 to 7.00 and 5.00 to 6.00.
As for `Cc1cc2cn[nH]c2cc1C(=O)Nc1ccc2[nH]nc(-c3ccccc3)c2c1` [Example 23, 5-Methyl-N-(3-phenyl-1H-indazol-5-yl)-1H-indazole-6-carboxamide], the pIC50 in experiment [1] and in experiment [2] (class symbols) was at least 7.00 throughout.
Turning to `Cc1n[nH]c2ccc(NC(=O)c3ccc4[nH]nnc4c3C#N)cc12` [Example 14, 4-Cyano-N-(3-methyl-1H-indazol-5-yl)-1H-benzo[d][1,2,3]triazole-5-carboxamide], the pIC50 was 5.00 to 6.00 in experiment [1] and under 5.00 in experiment [2] (numeric bound instead of class symbol).
Consider `Cc1cc2[nH]ncc2cc1C(=O)Nc1ccc2[nH]nc(-c3ccccc3)c2c1` [Example 21, 6-Methyl-N-(3-phenyl-1H-indazol-5-yl)-1H-indazole-5-carboxamide], for which the pIC50 in experiment [1] and in experiment [2] (class symbols) was at least 7.00 in each case.
Regarding `Cn1ncc2c(F)c(C(=O)Nc3ccc4[nH]nc(Cc5ccccc5)c4c3)c(F)cc21` [Example 140, N-(3-Benzyl-1H-indazol-5-yl)-4,6-difluoro-1-methyl-1H-indazole-5-carboxamide], the figures for the pIC50 in experiment [1] and in experiment [2] (class symbols) were 6.00 to 7.00 and 5.00 to 6.00, respectively.
On to `O=C(Nc1ccc2[nH]nc(-c3ccoc3)c2c1)c1ccn2nccc2n1` [Example 127, N-(3-(Furan-3-yl)-1H-indazol-5-yl)pyrazolo[1,5-a]pyrimidine-5-carboxamide], for which the pIC50 was at least 7.00 in experiment [1] and 6.00 to 7.00 in experiment [2] (class symbols).
Regarding `Cn1ncc2c(F)c(C(=O)Nc3ccc4[nH]nc(C#N)c4c3)c(F)cc21` [Example 105, N-(3-Cyano-1H-indazol-5-yl)-4,6-difluoro-1-methyl-1H-indazole-5-carboxamide], the figures for the pIC50 in experiment [1] and in experiment [2] (class symbols) were at least 7.00 and 6.00 to 7.00, respectively.
Regarding `Cc1cc2c(cnn2C)cc1C(=O)Nc1ccc2[nH]nc(-c3ccoc3)c2c1` [Example 158, N-(3-(Furan-3-yl)-1H-indazol-5-yl)-1,6-dimethyl-1H-indazole-5-carboxamide], the pIC50 in experiment [1] and in experiment [2] (class symbols) was at least 7.00 throughout.
`Cn1ncc2c(F)c(C(=O)Nc3ccc4[nH]nc(-c5ccccc5F)c4c3)c(F)cc21` [Example 78, 4,6-Difluoro-N-(3-(2-fluorophenyl)-1H-indazol-5-yl)-1-methyl-1H-indazole-5-carboxamide]: the pIC50 in experiment [1] was at least 7.00; in experiment [2] (class symbols) it was 6.00 to 7.00.
The like results for `Cc1nocc1-c1n[nH]c2ccc(NC(=O)c3c(F)cc4c(cnn4C)c3F)cc12` [Example 30, 4,6-Difluoro-1-methyl-N-(3-(3-methylisoxazol-4-yl)-1H-indazol-5-yl)-1H-indazole-5-carboxamide] were, in that order, at least 7.00 and 6.00 to 7.00.
The corresponding values for `Cc1nc2cncn2c(C)c1C(=O)Nc1ccc2[nH]nc(I)c2c1` [Example 111, N-(3-Iodo-1H-indazol-5-yl)-2,4-dimethylimidazo[1,5-a]pyrimidine-3-carboxamide] are at least 7.00 and at least 7.00.
Regarding `Cc1cc2[nH]ccc2cc1C(=O)Nc1ccc2[nH]nc(-c3ccccc3)c2c1` [Example 20, 6-Methyl-N-(3-phenyl-1H-indazol-5-yl)-1H-indole-5-carboxamide], the results for the pIC50 in experiment [1] and in experiment [2] (class symbols) were at least 7.00 and 6.00 to 7.00, respectively.
On to `Cn1ncc2c(F)c(C(=O)Nc3ccc4[nH]nc(N5Cc6ccccc6C5)c4c3)c(F)cc21` [Example 109, 4,6-Difluoro-N-(3-(isoindolin-2-yl)-1H-indazol-5-yl)-1-methyl-1H-indazole-5-carboxamide], for which the pIC50 in experiment [1] is at least 7.00; in experiment [2] (class symbols), 6.00 to 7.00.
As to `Cn1ncc2c(F)c(C(=O)Nc3ccc4[nH]nc(-c5ccno5)c4c3)c(F)cc21` [Example 137, 4,6-Difluoro-N-(3-(isoxazol-5-yl)-1H-indazol-5-yl)-1-methyl-1H-indazole-5-carboxamide], the pIC50 in experiment [1] and in experiment [2] (class symbols) was at least 7.00 throughout.
For the compound `Cc1cc2cnnn2c(C)c1C(=O)Nc1ccc2[nH]nc(Br)c2c1` [Example 45, N-(3-Bromo-1H-indazol-5-yl)-5,7-dimethyl-[1,2,3]triazolo[1,5-a]pyridine-6-carboxamide], the pIC50 was at least 7.00 in experiment [1] and 6.00 to 7.00 in experiment [2] (class symbols).
Take `O=C(Nc1ccc2[nH]nc(-c3ccoc3)c2c1)c1ccc2ncsc2n1` [Example 122, N-(3-(Furan-3-yl)-1H-indazol-5-yl)thiazolo[5,4-b]pyridine-5-carboxamide]: the pIC50 in experiment [1] and in experiment [2] (class symbols) was at least 7.00 each time.
As to `Cn1ncc2nc(C(=O)Nc3ccc4[nH]nc(-c5cnco5)c4c3)ccc21` [Example 165, 1-Methyl-N-(3-(oxazol-5-yl)-1H-indazol-5-yl)-1H-pyrazolo[4,3-b]pyridine-5-carboxamide], the pIC50 was at least 7.00 in experiment [1] and 6.00 to 7.00 in experiment [2] (class symbols).
For `Cn1ncc2c(F)c(C(=O)Nc3ccc4[nH]nc(NCc5ccccc5)c4c3)c(F)cc21` [Example 110, N-(3-(Benzylamino)-1H-indazol-5-yl)-4,6-difluoro-1-methyl-1H-indazole-5-carboxamide], the pIC50 in experiment [1] was at least 7.00; in experiment [2] (class symbols), 6.00 to 7.00.
